For 28 compounds, IC50 results are on record in US10787444B2, “Compounds for the modulation of myc activity” (Syros Pharmaceuticals, Inc., priority 2015, dated 2020).

The target of test [1] is T1, c-Myc/Max/Ebox DNA (Homo sapiens, UniProt P01106).
T1 construct: his6 (cleaved yes)
As to the kind of experiment: c-Myc/Max/Ebox DNA AlphaScreen Assay. Format: binding. As to conditions: calculated IC50 class. In short, it runs like this: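 Compounds were preincubated with free c-Myc (20 nM), biotinylated single-Ebox DNA (10 nM) and Ni acceptor beads before his6-Max (5 nM) and streptavidin donor beads were added. Buffer was 50 mM HEPES pH 8.0, 150 mM NaCl, BSA, Tween20, glycogen and DTT, with DMSO ≤2%. After 2 h incubation, AlphaScreen signal was read at 680 nm excitation and 520–620 nm emission.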

The test system of test [2] is human small lung cancer cell line H2171. Kind of test: Cell Viability Assay (ATPlite). The following applies: read-out: H2171 Activity. In kind it is cell-based. The essentials: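 H2171 cells were plated at 20,000 cells/mL and dosed immediately by pin transfer with a 10-point dose series in DMSO. After three days at 37° C, ATPlite luminescence served as the viability readout.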
(In general: In ATP-based viability assays light output follows the ATP content of the culture.)

The mark [3] stands for this setting: Homo sapiens, NCI-H2171, 72 h, Table 2, compounds of FIG. 1, H2171 cells, three days, ATPlite, calculated IC50 class.
[4] abbreviates: Homo sapiens, NCI-H2171, 72 h, Table 3, compounds of FIG. 2, H2171 cells, three days, ATPlite, calculated IC50 class.

Each structure is given as a SMILES string. Structures can show the parent of a compound that is named as a salt. Where two headings read alike, the source gives them in different places.

T1 sequence (P01106 whole entry): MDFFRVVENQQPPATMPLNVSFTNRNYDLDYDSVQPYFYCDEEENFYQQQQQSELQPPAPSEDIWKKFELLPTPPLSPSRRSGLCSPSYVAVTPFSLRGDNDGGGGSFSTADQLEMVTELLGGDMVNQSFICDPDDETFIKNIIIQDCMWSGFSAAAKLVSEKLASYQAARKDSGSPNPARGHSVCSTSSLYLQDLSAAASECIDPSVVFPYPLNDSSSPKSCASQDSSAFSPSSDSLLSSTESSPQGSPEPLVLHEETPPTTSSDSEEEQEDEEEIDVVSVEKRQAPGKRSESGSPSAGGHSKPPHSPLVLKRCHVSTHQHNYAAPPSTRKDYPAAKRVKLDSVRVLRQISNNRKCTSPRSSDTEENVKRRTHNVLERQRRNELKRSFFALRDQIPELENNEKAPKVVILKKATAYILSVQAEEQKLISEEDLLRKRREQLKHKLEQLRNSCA

Take `CC[C@@H](C)NCCC(=O)Nc1sc2c(c1-c1nc3ccccc3s1)CCNC2` [Compound 153, (R)—N-(3-(benzo[d]thiazol-2-yl)-4,5,6,7-tetrahydrothieno[2,3-c]pyridin-2-yl)-3-(sec-butylamino)propanamide]: the IC50 in test [1] (Table 2, compounds of FIG. 1) was 300 to 1000 nM; in test [2] (setting [3]), under 300 nM.
`CC[C@H](C)NCCC(=O)Nc1sc2c(c1-c1nc3ccccc3s1)CCNC2` [Compound 154, (S)—N-(3-(benzo[d]thiazol-2-yl)-4,5,6,7-tetrahydrothieno[2,3-c]pyridin-2-yl)-3-(sec-butylamino) propanamide]: the IC50 in test [1] (Table 2, compounds of FIG. 1) was 300 to 1000 nM; in test [2] (setting [3]), under 300 nM.
Take `CC(C)N1CCc2c(sc(NC(=O)CCNCc3cn[nH]c3)c2-c2nc3ccccc3s2)C1` [Compound 155, 3-(((1H-pyrazol-4-yl)methyl)amino)-N-(3-(benzo[d]thiazol-2-yl)-6-isopropyl-4,5,6,7-tetrahydrothieno[2,3-c]pyridin-2-yl)propanamide]: the IC50 in test [1] (Table 2, compounds of FIG. 1) was under 300 nM; in test [2] (setting [3]), under 300 nM.
On to `CC[C@H](C)NCCC(=O)Nc1sc2c(c1-c1nc3cc(F)ccc3s1)CCNC2` [Compound 156, (S)-3-(sec-butylamino)-N-(3-(5-fluorobenzo[d]thiazol-2-yl)-4,5,6,7-tetrahydrothieno[2,3-c]pyridin-2-yl)propanamide hydrochloride], for which the IC50 was under 300 nM in test [1] (Table 2, compounds of FIG. 1) and under 300 nM in test [2] (setting [3]).
For the compound `CC(C)NCCC(=O)Nc1sc2c(c1-c1nc3cc(-c4ccncc4)ccc3s1)CCNC2` [Compound 160, 3-(Isopropylamino)-N-(3-(5-(pyridin-4-yl)benzo[d]thiazol-2-yl)-4,5,6,7-tetrahydrothieno[2,3-c]pyridin-2-yl)propanamide dihydrochloride], the IC50 is 300 to 1000 nM in test [1] (Table 2, compounds of FIG. 1) and 300 to 1000 nM in test [2] (setting [3]).
Take `CC(C)NCCC(=O)Nc1sc2c(c1-c1nc3cc(-n4ccnc4)ccc3s1)CCNC2` [Compound 178, N-(3-(5-(1H-imidazol-1-yl)benzo[d]thiazol-2-yl)-4,5,6,7-tetrahydrothieno[2,3-c]pyridin-2-yl)-3-(isopropylamino)propanamide dihydrochloride]: the IC50 in test [1] (Table 2, compounds of FIG. 1) was under 300 nM; in test [2] (setting [3]) it was under 300 nM.
As to `CC[C@@H](C)NCCC(=O)Nc1sc2c(c1-c1nc3cc(C(F)(F)F)ccc3s1)CCNC2` [Compound 179, (R)-3-(sec-butylamino)-N-(3-(5-(trifluoromethyl)benzo[d]thiazol-2-yl)-4,5,6,7-tetrahydrothieno[2,3-c]pyridin-2-yl)propanamide], the IC50 was under 300 nM in test [1] (Table 2, compounds of FIG. 1) and under 300 nM in test [2] (setting [3]).
As for `CC[C@@H](C)NCCC(=O)Nc1sc2c(c1-c1nc3cc(F)ccc3s1)CCNC2` [Compound 185, (R)-3-(sec-butylamino)-N-(3-(5-fluorobenzo[d]thiazol-2-yl)-4,5,6,7-tetrahydrothieno[2,3-c]pyridin-2-yl)propanamide], the IC50 in test [1] (Table 2, compounds of FIG. 1) was under 300 nM; in test [2] (setting [3]), under 300 nM.
Take `COCCNCCC(=O)Nc1sc2c(c1-c1nc3cc(F)ccc3s1)CCNC2` [Compound 189, N-(3-(5-fluorobenzo[d]thiazol-2-yl)-4,5,6,7-tetrahydrothieno[2,3-c]pyridin-2-yl)-3-((2-methoxyethyl)amino)propanamide]: the IC50 is under 300 nM in test [1] (Table 2, compounds of FIG. 1) and under 300 nM in test [2] (setting [3]).
As for `O=C(CCNCc1c[nH]cn1)Nc1sc2c(c1-c1nc3ccccc3s1)CCNC2` [Compound 190, 3-(((1H-imidazol-4-yl)methyl)amino)-N-(3-(benzo[d]thiazol-2-yl)-4,5,6,7-tetrahydrothieno[2,3-c]pyridin-2-yl)propanamide], the IC50 in test [1] (Table 2, compounds of FIG. 1) was under 300 nM; in test [2] (setting [3]), under 300 nM.
`CCC(C)NCCC(=O)Nc1sc2c(c1-c1nc3ccccc3s1)CC[N+](C)(C(C)C)C2` (centres unmarked) [Compound 191, 3-(benzo[d]thiazol-2-yl)-2-(3-(sec-butylamino)propanamido)-6-isopropyl-6-methyl-4,5,6,7-tetrahydrothieno[2,3-c]pyridin-6-ium]: the IC50 was under 300 nM in test [1] (Table 2, compounds of FIG. 1) and 1000 to 10000 nM in test [2] (setting [3]).
Taken in the same sequence, the figures for `CCC(=O)NCCC(=O)Nc1sc2c(c1-c1nc3ccccc3s1)CCNC2` [Compound 199, N-(3-(benzo[d]thiazol-2-yl)-4,5,6,7-tetrahydrothieno[2,3-c]pyridin-2-yl)-3-propionamidopropanamide] were 1000 to 10000 nM and 1000 to 10000 nM.
`CC(=O)Nc1sc2c(c1-c1nc3ccccc3s1)CCN(C(C)C)C2` [Compound 200, N-(3-(benzo[d]thiazol-2-yl)-6-isopropyl-4,5,6,7-tetrahydrothieno[2,3-c]pyridin-2-yl)acetamide]: the IC50 was 300 to 1000 nM in test [1] (Table 3, compounds of FIG. 2) and 1000 to 10000 nM in test [2] (Homo sapiens, NCI-H2171, 72 h).
In the case of `CCN1CCc2c(sc(NC(C)=O)c2-c2nc3ccccc3s2)C1` [Compound 201, N-(3-(benzo[d]thiazol-2-yl)-6-ethyl-4,5,6,7-tetrahydrothieno[2,3-c]pyridin-2-yl)acetamide], the IC50 in test [1] (Table 3, compounds of FIG. 2) is 1000 to 10000 nM; in test [2] (Homo sapiens, NCI-H2171, 72 h) it was 1000 to 10000 nM.
As to `CC(=O)Nc1sc2c(c1-c1nc3ccccc3s1)CCNC2` [Compound 202, N-(3-(benzo[d]thiazol-2-yl)-4,5,6,7-tetrahydrothieno[2,3-c]pyridin-2-yl)acetamide], the IC50 was 1000 to 10000 nM in test [1] (Table 3, compounds of FIG. 2) and under 300 nM in test [2] (setting [4]).
The corresponding values for `CC(=O)Nc1sc2c(c1-c1nc3cc(F)ccc3s1)CCNC2` [Compound 203, N-(3-(5-fluorobenzo[d]thiazol-2-yl)-4,5,6,7-tetrahydrothieno[2,3-c]pyridin-2-yl)acetamide] are 1000 to 10000 nM and 1000 to 10000 nM.
For `CC(=O)Nc1sc2c(c1-c1nc3cc(C(F)(F)F)ccc3s1)CCNC2` [Compound 204, N-(3-(5-(trifluoromethyl)benzo[d]thiazol-2-yl)-4,5,6,7-tetrahydrothieno[2,3-c]pyridin-2-yl)acetamide], the IC50 in test [1] (Table 3, compounds of FIG. 2) is 1000 to 10000 nM; in test [2] (setting [4]), 1000 to 10000 nM.
Regarding `CC(=O)Nc1sc2c(c1-c1nc3ccccc3s1)C(C)CNC2` (centres unmarked) [Compound 205, N-(3-(benzo[d]thiazol-2-yl)-4-methyl-4,5,6,7-tetrahydrothieno[2,3-c]pyridin-2-yl)acetamide], the IC50 was over 10000 nM in test [1] (Table 3, compounds of FIG. 2) and over 10000 nM in test [2] (setting [4]).
`CC(=O)Nc1sc2c(c1-c1nc3ccccc3s1)C(F)CNC2` (centres unmarked) [Compound 217, N-(3-(benzo[d]thiazol-2-yl)-4-fluoro-4,5,6,7-tetrahydrothieno[2,3-c]pyridin-2-yl) acetamide]: the IC50 in test [1] (Table 3, compounds of FIG. 2) is over 10000 nM; in test [2] (setting [4]), under 300 nM.
For `CC(=O)Nc1sc2c(c1-c1nc3ccccc3s1)C[C@@H](C)N[C@H]2C` [Compound 218, N-((5R,7S)-3-(benzo[d]thiazol-2-yl)-5,7-dimethyl-4,5,6,7-tetrahydrothieno[2,3-c]pyridin-2-yl)acetamide], the IC50 in test [1] (Table 3, compounds of FIG. 2) is 1000 to 10000 nM; in test [2] (Table 3, compounds of FIG. 2, H2171 cells, three days, ATPlite, calculated IC50 class), under 300 nM.
On to `CC(=O)Nc1sc2c(c1-c1nc3ccccc3s1)C[C@H](C)N[C@@H]2C` [Compound 219, N-((5S,7R)-3-(benzo[d]thiazol-2-yl)-5,7-dimethyl-4,5,6,7-tetrahydrothieno[2,3-c]pyridin-2-yl)acetamide], for which the IC50 is 1000 to 10000 nM in test [1] (Table 3, compounds of FIG. 2) and under 300 nM in test [2] (setting [4]).
For `CC(=O)Nc1sc2c(c1-c1nc3ccccc3s1)C(F)CN(C(C)C)C2` (centres unmarked) [Compound 220, N-(3-(benzo[d]thiazol-2-yl)-4-fluoro-6-isopropyl-4,5,6,7-tetrahydrothieno[2,3-c]pyridin-2-yl) acetamide], the IC50 is 1000 to 10000 nM in test [1] (Table 3, compounds of FIG. 2) and over 10000 nM in test [2] (Homo sapiens, NCI-H2171, 72 h).
For `CC(=O)Nc1sc2c(c1-c1nc3ccccc3s1)CCC(N)C2` (centres unmarked) [Compound 221, N-(6-amino-3-(benzo[d]thiazol-2-yl)-4,5,6,7-tetrahydrobenzo[b]thiophen-2-yl)acetamide], the IC50 was over 10000 nM in test [1] (Table 3, compounds of FIG. 2) and over 10000 nM in test [2] (setting [4]).
Regarding `CC(=O)Nc1sc2c(c1-c1nc3ccccc3s1)CCC(N(C)C)C2` (centres unmarked) [Compound 223, N-(3-(benzo[d]thiazol-2-yl)-6-(dimethylamino)-4,5,6,7-tetrahydrobenzo[b]thiophen-2-yl)acetamide], the IC50 was 1000 to 10000 nM in test [1] (Table 3, compounds of FIG. 2) and over 10000 nM in test [2] (setting [4]).
For the compound `CC(=O)Nc1sc2c(c1-c1nc3ccc(C)cc3s1)CCNC2` [Compound 224, N-(3-(6-methylbenzo[d]thiazol-2-yl)-4,5,6,7-tetrahydrothieno[2,3-c]pyridin-2-yl)acetamide], the IC50 is 300 to 1000 nM in test [1] (Table 3, compounds of FIG. 2) and over 10000 nM in test [2] (setting [4]).
The corresponding values for `CC(=O)Nc1sc2c(c1-c1nc3c(C)cccc3s1)CCNC2` [Compound 225, N-(3-(4-methylbenzo[d]thiazol-2-yl)-4,5,6,7-tetrahydrothieno[2,3-c]pyridin-2-yl)acetamide] are 300 to 1000 nM and under 300 nM.
The corresponding values for `CC(=O)Nc1sc2c(c1-c1nc3ccccc3s1)CCC(NCc1ccncc1)C2` (centres unmarked) [Compound 226, N-(3-(benzo[d]thiazol-2-yl)-6-((pyridin-4-ylmethyl)amino)-4,5,6,7-tetrahydrobenzo[b]thiophen-2-yl)acetamide] are over 10000 nM and under 300 nM.
For the compound `CC(=O)Nc1sc2c(c1-c1nc3ccccc3s1)CCC(NC1CCNCC1)C2` (centres unmarked) [Compound 227, N-(3-(benzo[d]thiazol-2-yl)-6-(piperidin-4-ylamino)-4,5,6,7-tetrahydrobenzo[b]thiophen-2-yl)acetamide], the IC50 was over 10000 nM in test [1] (Table 3, compounds of FIG. 2) and under 300 nM in test [2] (setting [4]).
